Results taken from ChEMBL document CHEMBL1138895, “Synthesis and antibacterial activity of nocathiacin I analogues” (Bioorg Med Chem Lett, 2006).
Values after ≈ are worked out from the molar mass of the structure shown.

Legend:
[1] = system: Streptococcus pneumoniae; experiment: Antibacterial activity against penicillin resistant Streptococcus pneumoniae A28272; assay type: functional
[2] = system: Enterococcus faecalis; experiment: Antibacterial activity against […] A20688; assay type: functional
[3] = Solubility at pH 3.0; assay type: physicochemical; settings: buffer
[4] = system: Staphylococcus aureus; experiment: Antibacterial activity against methicillin-sensitive Staphylococcus aureus A15090; assay type: functional
[5] = organism: Mus musculus; experiment: Activity against Staphylococcus aureus A15090 infected ICR mouse after 8 days; assay type: functional; settings: 192 h, read-out: PD50
[6] = Solubility at pH 3.1; assay type: physicochemical; settings: buffer
[7] = Solubility at pH 3.2; assay type: physicochemical; settings: buffer
[8] = Solubility at pH 2.9; assay type: physicochemical; settings: buffer

Compound | MIC [1] [µg/mL] | MIC [2] [µg/mL] | solubility [3] [µg/mL] | MIC [4] [µg/mL] | ED50 [5] [mg/kg] | solubility [6] [µg/mL] | solubility [7] [µg/mL] | solubility [8] [µg/mL]
CO/C(C)=C1/NC(=O)[C@H]([C@@H](C)O)NC(=O)c2csc(n2)-c2cc(O)c(-c3nc(C(=O)N[C@@H](C)C(=O)NCCc4cc(O)cc(O)c4)cs3)nc2-c2csc(n2)[C@@H]2COC(=O)c3c4c5c(cccc5n3O)COC(=O)[C@@H](O[C@H]3C[C@](C)(O)[C@H](N(C)C)[C@H](C)O3)[C@@H](OC4)[C@H](NC(=O)c3csc1n3)c1nc(cs1)C(=O)N2 | 0.06 (≈ 0.0381 µM) | 0.5 (≈ 0.317 µM) | 20 (≈ 12.7 µM) | 0.25 (≈ 0.159 µM) | > 10 | – | – | –
CO/C(C)=C1/NC(=O)[C@H]([C@@H](C)O)NC(=O)c2csc(n2)-c2cc(O)c(-c3nc(C(=O)N[C@@H](C)C(=O)NCCc4ccncc4)cs3)nc2-c2csc(n2)[C@@H]2COC(=O)c3c4c5c(cccc5n3O)COC(=O)[C@@H](O[C@H]3C[C@](C)(O)[C@H](N(C)C)[C@H](C)O3)[C@@H](OC4)[C@H](NC(=O)c3csc1n3)c1nc(cs1)C(=O)N2 | 0.015 (≈ 0.00971 µM) | 0.06 (≈ 0.0388 µM) | > 3400 | 0.125 (≈ 0.0809 µM) | 3.3 | – | – | –
CO/C(C)=C1/NC(=O)[C@H]([C@@H](C)O)NC(=O)c2csc(n2)-c2cc(O)c(-c3nc(C(=O)N[C@@H](C)C(=O)NCc4ccc(O)cc4)cs3)nc2-c2csc(n2)[C@@H]2COC(=O)c3c4c5c(cccc5n3O)COC(=O)[C@@H](O[C@H]3C[C@](C)(O)[C@H](N(C)C)[C@H](C)O3)[C@@H](OC4)[C@H](NC(=O)c3csc1n3)c1nc(cs1)C(=O)N2 | 0.007 (≈ 0.00453 µM) | 0.03 (≈ 0.0194 µM) | – | 0.007 (≈ 0.00453 µM) | 4.35 | 480 (≈ 311 µM) | – | –
CO/C(C)=C1/NC(=O)[C@H]([C@@H](C)O)NC(=O)c2csc(n2)-c2cc(O)c(-c3nc(C(=O)N[C@@H](C)C(=O)N4CCC(O)CC4)cs3)nc2-c2csc(n2)[C@@H]2COC(=O)c3c4c5c(cccc5n3O)COC(=O)[C@@H](O[C@H]3C[C@](C)(O)[C@H](N(C)C)[C@H](C)O3)[C@@H](OC4)[C@H](NC(=O)c3csc1n3)c1nc(cs1)C(=O)N2 | 0.003 (≈ 0.00197 µM) | 0.06 (≈ 0.0394 µM) | – | 0.007 (≈ 0.00459 µM) | 4.35 | – | 1100 (≈ 722 µM) | –
CO/C(C)=C1/NC(=O)[C@H]([C@@H](C)O)NC(=O)c2csc(n2)-c2cc(O)c(-c3nc(C(=O)N[C@@H](C)C(=O)N(C)C[C@@H](O)[C@@H](O)[C@@H](O)[C@@H](O)CO)cs3)nc2-c2csc(n2)[C@@H]2COC(=O)c3c4c5c(cccc5n3O)COC(=O)[C@@H](O[C@H]3C[C@](C)(O)[C@H](N(C)C)[C@H](C)O3)[C@@H](OC4)[C@H](NC(=O)c3csc1n3)c1nc(cs1)C(=O)N2 | 0.015 (≈ 0.00927 µM) | 0.5 (≈ 0.309 µM) | – | 0.125 (≈ 0.0773 µM) | – | – | > 2400 | –
CO/C(C)=C1/NC(=O)[C@H]([C@@H](C)O)NC(=O)c2csc(n2)-c2cc(O)c(-c3nc(C(=O)N[C@@H](C)C(=O)N[C@@H]4[C@@H](O)[C@H](O)[C@@H](CO)O[C@H]4O)cs3)nc2-c2csc(n2)[C@@H]2COC(=O)c3c4c5c(cccc5n3O)COC(=O)[C@@H](O[C@H]3C[C@](C)(O)[C@H](N(C)C)[C@H](C)O3)[C@@H](OC4)[C@H](NC(=O)c3csc1n3)c1nc(cs1)C(=O)N2 | 0.06 (≈ 0.0375 µM) | 0.5 (≈ 0.312 µM) | – | 1 (≈ 0.624 µM) | > 10 | > 2200 | – | –
CO/C(C)=C1/NC(=O)[C@H]([C@@H](C)O)NC(=O)c2csc(n2)-c2cc(O)c(-c3nc(C(=O)N[C@@H](C)C(=O)NCc4ccc(O)c(O)c4)cs3)nc2-c2csc(n2)[C@@H]2COC(=O)c3c4c5c(cccc5n3O)COC(=O)[C@@H](O[C@H]3C[C@](C)(O)[C@H](N(C)C)[C@H](C)O3)[C@@H](OC4)[C@H](NC(=O)c3csc1n3)c1nc(cs1)C(=O)N2 | 0.007 (≈ 0.00448 µM) | 0.06 (≈ 0.0384 µM) | – | 0.03 (≈ 0.0192 µM) | > 10 | – | – | 20 (≈ 12.8 µM)
CO/C(C)=C1/NC(=O)[C@H]([C@@H](C)O)NC(=O)c2csc(n2)-c2cc(O)c(-c3nc(C(=O)N[C@@H](C)C(=O)NCCc4ccc(O)cc4)cs3)nc2-c2csc(n2)[C@@H]2COC(=O)c3c4c5c(cccc5n3O)COC(=O)[C@@H](O[C@H]3C[C@](C)(O)[C@H](N(C)C)[C@H](C)O3)[C@@H](OC4)[C@H](NC(=O)c3csc1n3)c1nc(cs1)C(=O)N2 | 0.0005 (≈ 0.000321 µM) | 0.007 (≈ 0.00449 µM) | – | 0.003 (≈ 0.00192 µM) | > 10 | – | 120 (≈ 76.9 µM) | –
CO/C(C)=C1/NC(=O)[C@H]([C@@H](C)O)NC(=O)c2csc(n2)-c2cc(O)c(-c3nc(C(=O)N[C@@H](C)C(=O)NCCc4ccc(O)c(O)c4)cs3)nc2-c2csc(n2)[C@@H]2COC(=O)c3c4c5c(cccc5n3O)COC(=O)[C@@H](O[C@H]3C[C@](C)(O)[C@H](N(C)C)[C@H](C)O3)[C@@H](OC4)[C@H](NC(=O)c3csc1n3)c1nc(cs1)C(=O)N2 | 0.125 (≈ 0.0793 µM) | 0.5 (≈ 0.317 µM) | 7 (≈ 4.44 µM) | 0.25 (≈ 0.159 µM) | > 10 | – | – | –
CO/C(C)=C1/NC(=O)[C@H]([C@@H](C)O)NC(=O)c2csc(n2)-c2cc(O)c(-c3nc(C(=O)N[C@@H](C)C(=O)N4CCC[C@H]4CO)cs3)nc2-c2csc(n2)[C@@H]2COC(=O)c3c4c5c(cccc5n3O)COC(=O)[C@@H](O[C@H]3C[C@](C)(O)[C@H](N(C)C)[C@H](C)O3)[C@@H](OC4)[C@H](NC(=O)c3csc1n3)c1nc(cs1)C(=O)N2 | 0.015 (≈ 0.00984 µM) | 0.25 (≈ 0.164 µM) | – | 0.03 (≈ 0.0197 µM) | 2.18 | 2200 (≈ 1440 µM) | – | –
